What follows are cell lines tested with CC(C)CCN1c2nc(Nc3cc(F)c(O)c(F)c3)ncc2N(C)C(=O)C1C [BI-D1870] + Cc1cc(Nc2cc(N3CCN(C)CC3)nc(Sc3ccc(NC(=O)C4CC4)cc3)n2)n[nH]1 [Tozasertib] (partner 0.1 µM) (assay: relative viability (nuclei count vs DMSO), 5 days (fraction); higher = more cells survive). Conditions: first compound 0.04 µM.
How it was run: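 Each reported value is a median over duplicate plates. It expresses relative viability: treated-well nuclei count divided by vehicle-well nuclei count. Lung cancer cell lines in 1536-well plates were dosed by pin tool a day after seeding, alone with one drug or with a fixed anchor-drug dose plus five library-drug doses (not always all listed) in √10 steps, and nuclei were counted after 5 days.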

| Cell Line | relative viability |
| --- | --- |
| NCI-H2342 | 0.491 |
| NCI-H1623 | 0.404 |
| NCI-H727 | 0.683 |
| NCI-H1650 | 0.53 |
| NCI-H1993 | 0.606 |
| SW 1573 | 0.175 |
| NCI-H838 | 0.283 |
| LCLC-103H | 0.44 |
| NCI-H520 | 0.508 |
| NCI-H2126 | 0.899 |
| EMC-BAC-2 | 0.317 |
| NCI-H2085 | 0.816 |
| HCC-366 | 0.0892 |
| NCI-H1666 | 0.673 |
| NCI-H596 | 0.953 |
| NCI-H1648 | 0.479 |
| SK-MES-1 | 1.06 |
| COR-L23 | 0.199 |
| COR-L 105 | 0.416 |
| ChaGo-K-1 | 0.224 |
| HCC-44 | 1.29 |
| NCI-H522 | 0.559 |
| SW 900 | 0.472 |
| NCI-H2009 | 0.826 |
| NCI-H661 | 0.355 |
| SK-LU-1 | 0.365 |
| NCI-H2228 | 0.226 |
| NCI-H2023 | 0.308 |

Same assay, conditions: first compound 0.1265 µM

| Cell Line | relative viability |
| --- | --- |
| NCI-H2342 | 0.374 |
| NCI-H1623 | 0.412 |
| NCI-H727 | 0.699 |
| NCI-H1650 | 0.347 |
| NCI-H1993 | 0.602 |
| SW 1573 | 0.16 |
| NCI-H838 | 0.265 |
| LCLC-103H | 0.285 |
| NCI-H520 | 0.441 |
| NCI-H2126 | 0.794 |
| EMC-BAC-2 | 0.248 |
| NCI-H2085 | 0.735 |
| HCC-366 | 0.057 |
| NCI-H1666 | 0.569 |
| NCI-H596 | 0.82 |
| NCI-H1648 | 0.48 |
| SK-MES-1 | 0.82 |
| COR-L23 | 0.166 |
| COR-L 105 | 0.319 |
| ChaGo-K-1 | 0.203 |
| HCC-44 | 0.89 |
| NCI-H522 | 0.648 |
| SW 900 | 0.542 |
| NCI-H2009 | 0.723 |
| NCI-H661 | 0.337 |
| SK-LU-1 | 0.276 |
| NCI-H2228 | 0.205 |
| NCI-H2023 | 0.265 |

Same assay, conditions: first compound 0.4 µM

| Cell Line | relative viability |
| --- | --- |
| NCI-H2342 | 0.538 |
| NCI-H1623 | 0.478 |
| NCI-H727 | 0.561 |
| NCI-H1650 | 0.401 |
| NCI-H1993 | 0.58 |
| SW 1573 | 0.159 |
| NCI-H838 | 0.243 |
| LCLC-103H | 0.465 |
| NCI-H520 | 0.44 |
| NCI-H2126 | 0.78 |
| EMC-BAC-2 | 0.316 |
| NCI-H2085 | 0.544 |
| HCC-366 | 0.055 |
| NCI-H1666 | 0.584 |
| NCI-H596 | 0.901 |
| NCI-H1648 | 0.371 |
| SK-MES-1 | 0.766 |
| COR-L23 | 0.145 |
| COR-L 105 | 0.343 |
| ChaGo-K-1 | 0.201 |
| HCC-44 | 0.855 |
| NCI-H522 | 0.583 |
| SW 900 | 0.463 |
| NCI-H2009 | 0.639 |
| NCI-H661 | 0.336 |
| SK-LU-1 | 0.262 |
| NCI-H2228 | 0.163 |
| NCI-H2023 | 0.253 |

Same assay, conditions: first compound 1.265 µM

| Cell Line | relative viability |
| --- | --- |
| NCI-H2342 | 0.481 |
| NCI-H1623 | 0.452 |
| NCI-H727 | 0.773 |
| NCI-H1650 | 0.323 |
| NCI-H1993 | 0.566 |
| SW 1573 | 0.176 |
| NCI-H838 | 0.251 |
| LCLC-103H | 0.565 |
| NCI-H520 | 0.358 |
| NCI-H2126 | 0.722 |
| EMC-BAC-2 | 0.288 |
| NCI-H2085 | 0.547 |
| HCC-366 | 0.0986 |
| NCI-H1666 | 0.569 |
| NCI-H596 | 0.81 |
| NCI-H1648 | 0.566 |
| SK-MES-1 | 0.607 |
| COR-L23 | 0.181 |
| COR-L 105 | 0.341 |
| ChaGo-K-1 | 0.236 |
| HCC-44 | 0.602 |
| NCI-H522 | 0.505 |
| SW 900 | 0.408 |
| NCI-H2009 | 0.516 |
| NCI-H661 | 0.354 |
| SK-LU-1 | 0.339 |
| NCI-H2228 | 0.164 |
| NCI-H2023 | 0.227 |

Same assay, conditions: first compound 4 µM

| Cell Line | relative viability |
| --- | --- |
| NCI-H2342 | 0.515 |
| NCI-H1623 | 0.376 |
| NCI-H727 | 0.557 |
| NCI-H1650 | 0.252 |
| NCI-H1993 | 0.612 |
| SW 1573 | 0.175 |
| NCI-H838 | 0.22 |
| LCLC-103H | 0.49 |
| NCI-H520 | 0.36 |
| NCI-H2126 | 0.538 |
| EMC-BAC-2 | 0.259 |
| NCI-H2085 | 0.401 |
| HCC-366 | 0.0506 |
| NCI-H1666 | 0.537 |
| NCI-H596 | 0.905 |
| NCI-H1648 | 0.412 |
| SK-MES-1 | 0.22 |
| COR-L23 | 0.13 |
| COR-L 105 | 0.33 |
| ChaGo-K-1 | 0.22 |

— the supplement of paper PMC10307832
